From paper PMC4728661, “Cancer Prevention and Health Benefices of Traditionally Consumed Borago officinalis Plants” (Nutrients, 2016)
Marks after values point to notes of the source that are not given here.

Tests used:
D. melanogaster [1] = assay: Toxicity: survival of Drosophila larvae to emerged adults, simple and combined (H2O2) treatments; assay type: in vivo, Drosophila melanogaster
Procedure: Optimal fertile flies were anesthetized under CO2 narcotisation for cross selection and then placed in new vials for fertilization. After that, hybrid eggs from crossing were collected over an 8 h period and emerged larvae (72 ± 4 h later) were cleaned up for a few seconds in sterile distilled water to remove feeding medium rests. […] Bioactive compound concentrations were chosen on the basis of their known content in B. officinalis species. […] Larvae were fed on these media until pupation (about 48 h). After emergence, resulting adult flies were sacrificed under CO2 narcotisation and stored in a 70% ethanol solution in sterile water. […] The determination of Toxicity (T) of treatments in D. melanogaster was performed following this formula [39]: T = (N° of emerging individuals in treatment/N° of emerging individuals in the negative control) × 100(1) Differences in D. melanogaster survival between treatments at each concentration with respect to negative control were analyzed with a Chi-square test. This procedure was also performed for the analysis of each simple treatment with their correspondent combined treatment.

D. melanogaster [2] = assay: Genotoxicity: Somatic Mutation and Recombination Test (SMART), wing spot test, simple treatments; assay type: in vivo, Drosophila melanogaster; details: for Genotoxicity in the Drosophila wing spot test (in words): simple treatments, all concentrations; for Diagnosis, Large Single Spots >2 Cells m = 5 / Diagnosis, Small Single Spots 1–2 Cells m = 2 / Diagnosis, Total Spots m = 2 / Diagnosis, Twin Spots m = 5 / Mutation rate, Large Single Spots >2 Cells m = 5 / Mutation rate, Small Single Spots 1–2 Cells m = 2 / Mutation rate, Total Spots m = 2 / Mutation rate, Twin Spots m = 5: simple; on Diagnosis, Large Single Spots >2 Cells m = 5: key: + (positive); − (negative); on Diagnosis, Small Single Spots 1–2 Cells m = 2: key: + (positive); − (negative); on Diagnosis, Total Spots m = 2: key: + (positive); − (negative); on Diagnosis, Twin Spots m = 5: key: + (positive); − (negative)
Procedure: The D. melanogaster system was selected for the determination of the safety of B. officinalis consumption as a well-recognized method to analyze vegetable complex mixtures using SMART [31, 32]. This test was used in order to evaluate the genotoxic and antigenotoxic activity of B. officinalis leaves and petioles as well as their selected bioactive compounds [33]. This activity was measured by direct visualization of the occurrence of recessive mutations in the wing hairs of two different D. melanogaster strains. Flies from experiments carried these visible wing genetic markers: the flare (flr) strain flr^3/ln (3LR) TM3, Bd^s and the multiple wing-hair (mwh) strain mwh/mwh. The marker flare (flr^3, 3_38.3) produces individual malformed hairs and the marker multiple wing hairs (mwh, 3_0.3) produces multiple hairs per cell. Larvae used in treatments come from two types of crosses: the standard cross with flr^3/TM3, Bd^S females mated to mwh/mwh males and the reciprocal cross.
Optimal fertile flies were anesthetized under CO2 narcotisation for cross selection and then placed in new vials for fertilization. After that, hybrid eggs from crossing were collected over an 8 h period and emerged larvae (72 ± 4 h later) were cleaned up for a few seconds in sterile distilled water to remove feeding medium rests. For genotoxicity analysis (simple treatments), groups of 100 larvae were transferred into vials containing 0.85 g of Drosophila Instant Medium (Formula 4–24, Carolina Biological Supply, Burlington, NC, USA) wetted with 4 mL of a mixture of distilled water and increasing concentrations of samples: B. officinalis BF and WF (1.25, 2.5, and 5 mg·mL^−1), RO (0.35, 0.7, 1.39 and 2.78 mM), SY (0.16, 0.32, 0.63 and 1.26 mM), SI (0.15, 0.29, 0.58 and 1.16 mM) and the mixture of these three bioactive compounds at each concentration assayed individually. Bioactive compound concentrations were chosen on the basis of their known content in B. officinalis species. […] Larvae were fed on these media until pupation (about 48 h). After emergence, resulting adult flies were sacrificed under CO2 narcotisation and stored in a 70% ethanol solution in sterile water. Emerged adults were counted for toxicity evaluation and transheterozygous wings (mwh flr^+/mwh^+ flr^3) were mounted on microscope slides and wing hair mutations (spots) scored, using a photonic microscope (Nikon) at 400× magnification for genotoxicity and antigenotoxicity evaluation.
For the evaluation of genotoxic effects, the frequencies of spots per fly of each treated series were compared to the concurrent negative control for each class of mutational clone as well as between simple and combined treatments for the same concentration comparisons. […] A multiple-decision procedure was used to categorize results as positive, inconclusive or negative. Inconclusive and positive results were evaluated by the non-parametric U test of Mann, Whitney and Wilcoxon. The inhibition percentage (IP) of genotoxicity was calculated from the total frequencies of spots per wing, following this formula [42]: IP = (genotoxin alone − sample + genotoxin) × 100/(genotoxin alone)(2)

HL-60 cells = assay: Cytotoxicity: HL-60 growth/viability, Trypan Blue dye exclusion; assay type: cell-based, human; details: 0.03–1 mM, 72 h
Procedure: The human acute promyelocytic leukemia cell line HL-60 was routinely grown in suspension in RPMI medium (Invitrogen, Madrid, Spain) containing glutamine ([…], Sigma-Aldrich, St. Louis, MO, USA), antibiotics (100IU penicillin mL^−1 and 100 μg streptomycin mL^−1, Sigma-Aldrich) and supplemented with 10% heat-inactivated foetal bovine serum (Linus, Cultek, Madrid, Spain) and placed in an incubator (Shel Lab, Cornelious, OR, USA) with a 5% CO2 humidified atmosphere at 37 °C [36]. HL-60 cells were subcultured every 2–3 days to maintain logarithmic growth and they were allowed to grow for 48 h before use. Cultures were plated at a density of 12.5 × 10^4 cells mL^−1 in 40 mL culture flasks (25 cm^2). Cytotoxic activity was measured as growing inhibition or decreased viability on HL-60 cells following a previous protocol modified by us. […] Cells were counted after 72 h treatment. Tested concentrations were calculated according to those used for in vivo assays to equal the range of tested doses. Untreated cultures were used as negative control. Cell viability was determined by the Trypan Blue dye exclusion test. Cells were stained with an equal volume of Trypan Blue commercial solution (Sigma-Aldrich) and counted using a hemocytometer at room temperature under a light inverted microscope (AE30/31, Motic, Barcelona, Spain). Cytotoxic effect evaluation was determined after each culture incubation period, establishing a growth curve and determining IC50 values by regression analysis of the curves. Viability estimated regressions of leukemia cells are presented as a survival percentage with respect to controls at 72 h growth and plotted as mean viability ± standard error of at least three independent replicas for each treatment and concentration.

Compound: COc1cc(/C=C/C(=O)O)cc(OC)c1O [SI, sinapic acid]
- Survival (D. melanogaster [1]; combined with 0.12 M H2O2, 0.15 mM SI): 64 *^,‡ %
- Survival (D. melanogaster [1]; combined with 0.12 M H2O2, 0.29 mM SI): 58.89 * %
- Survival (D. melanogaster [1]; combined with 0.12 M H2O2, 0.58 mM SI): 39.78 *^,‡ %
- Survival (D. melanogaster [1]; combined with 0.12 M H2O2, 1.16 mM SI): 43.56 *^,‡ %
- Survival (D. melanogaster [1]; simple treatment, 0.15 mM SI): 78.22 * %
- Survival (D. melanogaster [1]; simple treatment, 0.29 mM SI): 60.22 * %
- Survival (D. melanogaster [1]; simple treatment, 0.58 mM SI): 69.33 * %
- Survival (D. melanogaster [1]; simple treatment, 1.16 mM SI): 55.11 * %
- Genotoxicity in the Drosophila wing spot test (in words) (D. melanogaster [2]): not mutagenic
- Diagnosis, Large Single Spots >2 Cells m = 5 (D. melanogaster [2]; 0.15 mM SI): −
- Diagnosis, Small Single Spots 1–2 Cells m = 2 (D. melanogaster [2]; 0.15 mM SI): −
- Diagnosis, Total Spots m = 2 (D. melanogaster [2]; 0.15 mM SI): −
- Diagnosis, Twin Spots m = 5 (D. melanogaster [2]; 0.15 mM SI): −
- Mutation rate, Large Single Spots >2 Cells m = 5 (D. melanogaster [2]; 0.15 mM SI): 0.04 (1) spots/wing
- Mutation rate, Small Single Spots 1–2 Cells m = 2 (D. melanogaster [2]; 0.15 mM SI): 0.38 (9) spots/wing
- Mutation rate, Total Spots m = 2 (D. melanogaster [2]; 0.15 mM SI): 0.46 (11) spots/wing
- Mutation rate, Twin Spots m = 5 (D. melanogaster [2]; 0.15 mM SI): 0.04 (1) spots/wing
- Diagnosis, Large Single Spots >2 Cells m = 5 (D. melanogaster [2]; 0.29 mM SI): −
- Diagnosis, Small Single Spots 1–2 Cells m = 2 (D. melanogaster [2]; 0.29 mM SI): −
- Diagnosis, Total Spots m = 2 (D. melanogaster [2]; 0.29 mM SI): −
- Mutation rate, Large Single Spots >2 Cells m = 5 (D. melanogaster [2]; 0.29 mM SI): 0.10 (3) spots/wing
- Mutation rate, Small Single Spots 1–2 Cells m = 2 (D. melanogaster [2]; 0.29 mM SI): 0.39 (12) spots/wing
- Mutation rate, Total Spots m = 2 (D. melanogaster [2]; 0.29 mM SI): 0.48 (15) spots/wing
- Mutation rate, Twin Spots m = 5 (D. melanogaster [2]; 0.29 mM SI): 0 spots/wing
- Diagnosis, Large Single Spots >2 Cells m = 5 (D. melanogaster [2]; 0.58 mM SI): −
- Diagnosis, Small Single Spots 1–2 Cells m = 2 (D. melanogaster [2]; 0.58 mM SI): −
- Diagnosis, Total Spots m = 2 (D. melanogaster [2]; 0.58 mM SI): −
- Mutation rate, Large Single Spots >2 Cells m = 5 (D. melanogaster [2]; 0.58 mM SI): 0.07 (2) spots/wing
- Mutation rate, Small Single Spots 1–2 Cells m = 2 (D. melanogaster [2]; 0.58 mM SI): 0.33 (10) spots/wing
- Mutation rate, Total Spots m = 2 (D. melanogaster [2]; 0.58 mM SI): 0.40 (12) spots/wing
- Mutation rate, Twin Spots m = 5 (D. melanogaster [2]; 0.58 mM SI): 0 spots/wing
- Diagnosis, Large Single Spots >2 Cells m = 5 (D. melanogaster [2]; 1.16 mM SI): −
- Diagnosis, Small Single Spots 1–2 Cells m = 2 (D. melanogaster [2]; 1.16 mM SI): −
- Diagnosis, Total Spots m = 2 (D. melanogaster [2]; 1.16 mM SI): −
- Diagnosis, Twin Spots m = 5 (D. melanogaster [2]; 1.16 mM SI): −
- Mutation rate, Large Single Spots >2 Cells m = 5 (D. melanogaster [2]; 1.16 mM SI): 0.03 (1) spots/wing
- Mutation rate, Small Single Spots 1–2 Cells m = 2 (D. melanogaster [2]; 1.16 mM SI): 0.23 (9) spots/wing
- Mutation rate, Total Spots m = 2 (D. melanogaster [2]; 1.16 mM SI): 0.28 (11) spots/wing
- Mutation rate, Twin Spots m = 5 (D. melanogaster [2]; 1.16 mM SI): 0.03 (1) spots/wing
- Effect on HL-60 growth (HL-60 cells): did not affect HL-60 growth

Compound: COc1cc(C(=O)O)cc(OC)c1O [SY, syringic acid]
- Survival (D. melanogaster [1]; combined with 0.12 M H2O2, 0.16 mM SY): 31.11 *^,‡ %
- Survival (D. melanogaster [1]; combined with 0.12 M H2O2, 0.32 mM SY): 29.33 *^,‡ %
- Survival (D. melanogaster [1]; combined with 0.12 M H2O2, 0.63 mM SY): 20.44 *^,‡ %
- Survival (D. melanogaster [1]; combined with 0.12 M H2O2, 1.26 mM SY): 36.89 *^,‡ %
- Survival (D. melanogaster [1]; simple treatment, 0.16 mM SY): 39.78 * %
- Survival (D. melanogaster [1]; simple treatment, 0.32 mM SY): 42.67 * %
- Survival (D. melanogaster [1]; simple treatment, 0.63 mM SY): 31.11 * %
- Survival (D. melanogaster [1]; simple treatment, 1.26 mM SY): 58.22 * %
- Genotoxicity in the Drosophila wing spot test (in words) (D. melanogaster [2]): not mutagenic
- Diagnosis, Large Single Spots >2 Cells m = 5 (D. melanogaster [2]; 0.16 mM SY): −
- Diagnosis, Small Single Spots 1–2 Cells m = 2 (D. melanogaster [2]; 0.16 mM SY): −
- Diagnosis, Total Spots m = 2 (D. melanogaster [2]; 0.16 mM SY): −
- Diagnosis, Twin Spots m = 5 (D. melanogaster [2]; 0.16 mM SY): −
- Mutation rate, Large Single Spots >2 Cells m = 5 (D. melanogaster [2]; 0.16 mM SY): 0.05 (2) spots/wing
- Mutation rate, Small Single Spots 1–2 Cells m = 2 (D. melanogaster [2]; 0.16 mM SY): 0.30 (12) spots/wing
- Mutation rate, Total Spots m = 2 (D. melanogaster [2]; 0.16 mM SY): 0.38 (15) spots/wing
- Mutation rate, Twin Spots m = 5 (D. melanogaster [2]; 0.16 mM SY): 0.03 (1) spots/wing
- Diagnosis, Large Single Spots >2 Cells m = 5 (D. melanogaster [2]; 0.32 mM SY): −
- Diagnosis, Small Single Spots 1–2 Cells m = 2 (D. melanogaster [2]; 0.32 mM SY): −
- Diagnosis, Total Spots m = 2 (D. melanogaster [2]; 0.32 mM SY): −
- Mutation rate, Large Single Spots >2 Cells m = 5 (D. melanogaster [2]; 0.32 mM SY): 0.07 (2) spots/wing
- Mutation rate, Small Single Spots 1–2 Cells m = 2 (D. melanogaster [2]; 0.32 mM SY): 0.20 (6) spots/wing
- Mutation rate, Total Spots m = 2 (D. melanogaster [2]; 0.32 mM SY): 0.27 (8) spots/wing
- Mutation rate, Twin Spots m = 5 (D. melanogaster [2]; 0.32 mM SY): 0 spots/wing
- Diagnosis, Large Single Spots >2 Cells m = 5 (D. melanogaster [2]; 0.63 mM SY): −
- Diagnosis, Small Single Spots 1–2 Cells m = 2 (D. melanogaster [2]; 0.63 mM SY): −
- Diagnosis, Total Spots m = 2 (D. melanogaster [2]; 0.63 mM SY): −
- Mutation rate, Large Single Spots >2 Cells m = 5 (D. melanogaster [2]; 0.63 mM SY): 0.02 (1) spots/wing
- Mutation rate, Small Single Spots 1–2 Cells m = 2 (D. melanogaster [2]; 0.63 mM SY): 0.19 (9) spots/wing
- Mutation rate, Total Spots m = 2 (D. melanogaster [2]; 0.63 mM SY): 0.21 (10) spots/wing
- Mutation rate, Twin Spots m = 5 (D. melanogaster [2]; 0.63 mM SY): 0 spots/wing
- Diagnosis, Large Single Spots >2 Cells m = 5 (D. melanogaster [2]; 1.26 mM SY): −
- Diagnosis, Small Single Spots 1–2 Cells m = 2 (D. melanogaster [2]; 1.26 mM SY): −
- Diagnosis, Total Spots m = 2 (D. melanogaster [2]; 1.26 mM SY): −
- Mutation rate, Large Single Spots >2 Cells m = 5 (D. melanogaster [2]; 1.26 mM SY): 0.06 (2) spots/wing
- Mutation rate, Small Single Spots 1–2 Cells m = 2 (D. melanogaster [2]; 1.26 mM SY): 0.22 (7) spots/wing
- Mutation rate, Twin Spots m = 5 (D. melanogaster [2]; 1.26 mM SY): 0 spots/wing
- Effect on HL-60 growth (HL-60 cells): did not affect HL-60 growth
